“Also recorded” adds a separate entry of the source. Bridge positions count the residues as written; N and C are the ends. Peptide text beside a SMILES is read from it.
B1: pro-ANP: precursor of ANP, tested for cross reactivity with the antiserum (protein, UniProt P01161 25-152, looked up)
pro-form: NPVYSAVSNTDLMDFKNLLDHLEEKMPVEDEVMPPQALSEQTDEAGAALSSLSEVPPWTGEVNPSQRDGGALGRGPWDPSDRSALLKSKLRALLAGPRSLRRSSCFGGRIDRIGAQSGLGCNSFRYRR
modifications: pro-form

Legend:
[1] = system: assay rats anesthetized with sodium pentobarbital; experiment: I.V. bolus injection into anesthetized bioassay rats: cardiovascular and renal responses; format: in vivo, rat; conditions: 3 nmol bolus injection
Method: Experiments were performed using male Sprague-Dawley rats, ranging in weight from 270-362 g. The rats were anesthetized by an intraperitional injection of sodium pentobarbital (70 mg.kg-1; MTC Pharmaceuticals, Hamilton, Ont.). Additional small amounts of anesthetic were administered as required in the course of the experiment. Body temperature was maintained by a heating lamp and rectal temperature monitored by a rectal probe. After installing a tracheal cannula, a femoral vein was cannulated and a priming infusion of saline (0.9% NaCl) was administered over a 20 min period (1.1 ml); this was followed by a maintenance saline infusion of 1.2 ml.h-1. The femoral artery was then cannulated for blood pressure measurement (Statham pressure transducer, model P23Db). A catheter was also advanced via the right external jugular vein towards the right heart for bolus injections of vehicle, ANF or the atrial peptide of the present invention (AHP). After tying off the penis, the bladder was cannulated for urine collection. […] The EKG was recorded for determination of heart rate.
Urine was collected in preweighed vials and volume calculated by weighing. […]
Zero time was established by 40-60 mins from the beginning the priming saline infusion. […] Cardiovascular measurements were analyzed at 5 min intervals during control and at 1, 5, 10, 15 and 20 mins following administration of injectate. […]

[2] = system: antiserum to iso-rANP(1-20) (P2A); experiment: Double immunodiffusion / cross reactivity of antiserum raised against P2A; format: binding, rabbit

Row | Molecule | diuretic, natriuretic, hypotensive and bradycardic response of ring peptides (FIG. 5) [1] | reaction with antiserum against P2A (precipitin lines / cross reactivity) [2]
1 | CC[C@H](C)[C@@H]1NC(=O)[C@H](CCCNC(=N)N)NC(=O)[C@H](CC(=O)O)NC(=O)[C@H]([C@@H](C)CC)NC(=O)[C@H](CCCCN)NC(=O)[C@H](CCC(N)=O)NC(=O)CNC(=O)[C@H](Cc2ccccc2)NC(=O)[C@@H](N)CSSC[C@@H](C(=O)O)NC(=O)CNC(=O)[C@H](CC(C)C)NC(=O)[C@H](CCCNC(=N)N)NC(=O)[C@H](CO)NC(=O)[C@H](C(C)C)NC(=O)[C@H](C)NC(=O)CNC1=O [Iso-rANP(23-39)] (H-CFGQKIDRIGAVSRLGC-OH; disulfide 1-17) | significant diuretic, natriuretic, hypotensive and bradycardin response | 
2 | rANP(23-39): ring portion of rANP [reference compound] | substantially biologically inactive | 
3 | B1 |  | No cross reactivity; also recorded: did not cross-react
